In patent US12384769B2, “Heteroaryl-substituted aminoalkyl azole compounds as pesticides” (Elanco Animal Health GmbH, priority 2019, dated 2025):

Legend:
Format in all cases: in vivo
[1] = system: Ctenocephalides felis; assay: Ctenocephalides felis oral test (CTECFE); settings: 48 h, 100 ppm in cattle blood, after 2 days
Description: Ctenocephalides felis—Oral Test (CTECFE)
(§1) Solvent: dimethyl sulfoxide
To produce a suitable preparation of active compound, 10 mg of active compound are dissolved in 0.5 ml solvent, and the concentrate is diluted with cattle blood to the desired concentration.
Approximately 20 adult unfed cat fleas (Ctenocephalides felis) are placed in flea chambers. The blood chamber, sealed with parafilm on the bottom, are filled with cattle blood supplied with compound solution and placed on the gauze covered top of the flea chamber, so that the fleas are able to suck the blood. The blood chamber is heated to 37° C. whereas the flea chamber is kept at room temperature.
After 2 days mortality in % is determined. 100% means all the fleas have been killed; 0% means none of the fleas have been killed.

[2] = system: Boophilus microplus; assay: Boophilus microplus injection test (BOOPMI Injection); settings: Rhipicephalus microplus, 168 h, injection into adult engorged female ticks, egg deposition after 7 days, read-out: activity (efficacy, infertile eggs); for pest or weed control at 0.02 mg: 20 μg/animal; for pest or weed control at 0.004 mg: 4 μg/animal
Description: Boophilus microplus—Injection Test (BOOPMI Injection)
as §1
To produce a suitable preparation of active compound, 10 mg of active compound are dissolved in 0.5 mL solvent, and the concentrate is diluted with solvent to the desired concentration.
Five adult engorged female ticks (Boophilus microplus) are injected with 1 μL compound solution into the abdomen. The ticks are transferred into replica plates and incubated in a climate chamber.
After 7 days egg deposition of fertile eggs is monitored. Eggs where fertility is not visible are stored in a climate chamber till hatching after about 42 days. An efficacy of 100% means all eggs are infertile; 0% means all eggs are fertile.

[3] = system: Diabrotica balteata; assay: Diabrotica balteata spray test; settings: 168 h, wheat seeds, after 7 days, read-out: activity (efficacy, seedlings grown); for pest or weed control at 160 µg/disc, 500 g/ha: 500 g/ha (=160 μg/well)
Description: Diabrotica balteata—Spray Test
Solvent: 78.0 parts by weight of acetone • • 1.5 parts by weight of dimethylformamide
(§2) Emulsifier: alkylarylpolyglycol ether
(§3) To produce a suitable preparation of active compound, 1 part by weight of active compound is mixed with the stated amount of solvent, and the concentrate is diluted with water, containing an emulsifier concentration of 1000 ppm, to the desired concentration. Further test concentrations are prepared by dilution with emulsifier containing water.
Soaked wheat seeds (Triticum aestivum) are placed in a multiple well plate filled with agar and some water and are incubated for 1 day to germinate (5 seeds per well). The germinated wheat seeds are sprayed with a test solution containing the desired concentration of the active ingredient. Afterwards each unit is infected with 10-20 larvae of the banded cucumber beetle (Diabrotica balteata).
After 7 days efficacy in % is determined. 100% means all the seedlings have grown up like in the untreated, uninfected control; 0% means none of the seedlings have grown.

[4] = system: Spodoptera frugiperda; assay: Spodoptera frugiperda spray test; settings: in Zea mays, 168 h, read-out: activity (mortality)
Description: Spodoptera frugiperda—Spray Test
Solvent: 78.0 parts by weight acetone • 1.5 parts by weight dimethylformamide
as §2
as §3, with “solvents” for “solvent,”, “and” for “and the concentrate”
Maize (Zea mays) leaf sections are sprayed with a preparation of the active ingredient of the desired concentration. Once dry, the leaf sections are infested with fall armyworm larvae (Spodoptera frugiperda).
After 7 days mortality in % is determined. 100% means all caterpillars have been killed and 0% means none of the caterpillars have been killed.

[5] = system: Rhipicephalus microplus (strain Parkhurst, resistant against synthetic pyrethroids); assay: Rhipicephalus microplus in-vitro contact test, larval cattle tick (BOOPMI Contact); settings: 5 μg/cm^2 (=500 g/ha), after 48 hours, read-out: activity (efficacy, larvae dead or moribund)
Description: Rhipicephalus microplus—in-Vitro Contact Tests Larval Cattle Tick (Strain Parkhurst, Resistant Against Synthetic Pyrethroids) (BOOPMI Contact)
9 mg compound is solved in 1 ml acetone and diluted with acetone to the desired concentration. 250 μL of the test solution is filled in 25 ml glass test tubes and homogeneously distributed on the inner walls by rotation and tilting on a shaking device (2 h at 30 rpm). With a compound concentration of 900 ppm, an inner surface of 44.7 cm^2 and a homogeneous distribution, a dose of 5 μg/cm^2 is achieved.
After the solvent has evaporated, each test tube is filled with 20-50 cattle tick larvae (Rhipicephalus microplus), closed with a perforated lid and incubated in a horizontal position at 85% relative humidity and 27° C. in an incubator. After 48 hours efficacy is determined. The larvae are patted on the ground of the tubes and negative geotactic behaviour is recorded.
An efficacy of 100% means all larvae are dead or moribund; 0% means no larvae are dead or moribund.

**Q.** `CC(Nc1nc2cc(C(F)(F)F)cc(Cl)c2o1)c1nc(C(F)(F)F)nn1-c1ncccn1` (racemic) [Example I-048, 7-Chlor-N-{(rac)-1-[1-(pyrimidin-2-yl)-3-(trifluormethyl)-1H-1,2,4-triazol-5-yl]ethyl}-5-(trifluormethyl)-1,3-benzoxazol-2-amin] was tested. Which mortality at 100 ppm [1] did it give?
**A.** 100%

**Q.** How did the pest or weed control at 0.02 mg [2] turn out when `C[C@H](Nc1nc2cc(Br)cc(Cl)c2o1)c1ncnn1-c1ncccn1` [Example I-010] was run?
**A.** 100%

**Q.** And the pest or weed control at 100 g/ha [3]?
**A.** 80%

**Q.** What about the pest or weed control at 160 µg/disc, 500 g/ha [3] of the same compound?
**A.** 100%

**Q.** What about the mortality at 500 g/ha [4] of the same compound?
**A.** 100%

**Q.** And the mortality at 100 ppm [1]?
**A.** 100%

**Q.** `Cc1nc([C@H](C)Nc2nc3cc(C(F)(F)F)cc(C(F)(F)F)c3o2)n(-c2ncccn2)n1` [Example I-012] was tested. Which pest or weed control at 0.004 mg [2] did it give?
**A.** 100%

**Q.** And the pest or weed control at 0.02 mg [2]?
**A.** 100%

**Q.** And the mortality at 500 g/ha [4]?
**A.** 100%

**Q.** What about the mortality at 100 ppm [1] of the same compound?
**A.** 100%

**Q.** How did the pest or weed control at 0.004 mg [2] turn out when `C[C@H](Nc1nc2cc(C(F)(F)F)cc(C(F)(F)F)c2o1)c1ncnn1-c1ccc(C#N)cn1` [Example I-026] was run?
**A.** 100%

**Q.** What about the pest or weed control at 0.02 mg [2] of the same compound?
**A.** 100%

**Q.** And the pest or weed control at 160 µg/disc, 500 g/ha [3]?
**A.** 100%

**Q.** And the mortality at 100 g/ha [4]?
**A.** 100%

**Q.** And the mortality at 500 g/ha [4]?
**A.** 100%

**Q.** What about the pest or weed control at 5 µg/cm2 [5] of the same compound?
**A.** 100%

**Q.** What about the mortality at 100 ppm [1] of the same compound?
**A.** 100%

**Q.** `C[C@H](Nc1nc2cc(C(F)(F)F)c(Cl)cc2o1)c1ncnn1-c1ccc(Cl)cn1` [Example I-033] was tested. Which mortality at 500 g/ha [4] did it give?
**A.** 100%

**Q.** And the pest or weed control at 5 µg/cm2 [5]?
**A.** 100%

**Q.** What about the mortality at 100 ppm [1] of the same compound?
**A.** 90%

**Q.** Which results are given for `C[C@H](Nc1nc2cc(C(F)(F)F)cc(Cl)c2o1)c1ncnn1-c1ncc(Br)s1` [Example I-035, N-{(1S)-1-[1-(5-bromo-1,3-thiazol-2-yl)-1H-1,2,4-triazol-5-yl]ethyl}-7-chloro-5-(trifluoromethyl)-1,3-benzoxazol-2-amine]?
**A.** pest or weed control at 0.004 mg [2]: 80%; pest or weed control at 100 g/ha [3]: 100%; mortality at 100 ppm [1]: 100%

**Q.** With `C[C@H](Nc1nc2cc(C(F)(F)F)cc(Cl)c2o1)c1ncnn1-c1cnc(C#N)cn1` [Example I-041, 5-{5-[(1S)-1-{[7-Chlor-5-(trifluormethyl)-1,3-benzoxazol-2-yl]amino}ethyl]-1H-1,2,4-triazol-1-yl}pyrazin-2-carbonitril] as the compound, how does the pest or weed control at 100 g/ha [3] read?
**A.** 100%

**Q.** What about the pest or weed control at 5 µg/cm2 [5] of the same compound?
**A.** 80%

**Q.** What about the mortality at 100 ppm [1] of the same compound?
**A.** 90%

**Q.** Which results are given for `C[C@H](Nc1nc2cc(C(F)(F)F)cc(Cl)c2o1)c1ncnn1-c1ncc(Br)cn1` [Example I-044, N-{(1S)-1-[1-(5-Brompyrimidin-2-yl)-1H-1,2,4-triazol-5-yl]ethyl}-7-chlor-5-(trifluormethyl)-1,3-benzoxazol-2-amin]?
**A.** pest or weed control at 0.004 mg [2]: 100%; pest or weed control at 100 g/ha [3]: 100%; mortality at 100 g/ha [4]: 100%; pest or weed control at 5 µg/cm2 [5]: 100%; mortality at 100 ppm [1]: 100%

**Q.** `C[C@H](Nc1nc2cc(C(F)(F)F)cc(Cl)c2o1)c1ncnn1-c1nccs1` [Example I-050, 7-Chlor-N-{(1S)-1-[1-(1,3-thiazol-2-yl)-1H-1,2,4-triazol-5-yl]ethyl}-5-(trifluormethyl)-1,3-benzoxazol-2-amin] was tested. Which pest or weed control at 0.004 mg [2] did it give?
**A.** 80%

**Q.** What about the pest or weed control at 0.02 mg [2] of the same compound?
**A.** 80%

**Q.** And the mortality at 100 ppm [1]?
**A.** 90%

**Q.** How did the pest or weed control at 0.004 mg [2] turn out when `Cc1nc([C@H](C)Nc2nc3cc(C(F)(F)F)cc(Br)c3o2)n(-c2ncccn2)n1` [Example I-053, 7-Bromo-N-{(1S)-1-[3-methyl-1-(pyrimidin-2-yl)-1H-1,2,4-triazol-5-yl]ethyl}-5-(trifluormethyl)-1,3-benzoxazol-2-amin] was run?
**A.** 100%

**Q.** And the pest or weed control at 0.02 mg [2]?
**A.** 100%

**Q.** And the pest or weed control at 160 µg/disc, 500 g/ha [3]?
**A.** 100%

**Q.** And the mortality at 100 ppm [1]?
**A.** 100%

**Q.** What does the source list for `C[C@H](Nc1nc2cc(C(F)(F)F)c(Cl)cc2o1)c1ncnn1-c1ncc(C2COC2)cn1` [Example I-056, 6-Chloro-N-[(1S)-1-{1-[5-(oxetan-3-yl)pyrimidin-2-yl]-1H-1,2,4-triazol-5-yl}ethyl]-5-(trifluoromethyl)-1,3-benzoxazol-2-amine]?
**A.** pest or weed control at 0.004 mg [2]: 80%; pest or weed control at 0.02 mg [2]: 100%; pest or weed control at 5 µg/cm2 [5]: 80%; mortality at 100 ppm [1]: 100%

**Q.** `C[C@H](Nc1nc2cc(S(F)(F)(F)(F)F)cc(Cl)c2o1)c1ncnn1-c1ncccn1` [Example I-069, 7-Chlor-5-(pentafluor-lambda^6-sulfanyl)-N-{(1S)-1-[1-(pyrimidin-2-yl)-1H-1,2,4-triazol-5-yl]ethyl}-1,3-benzoxazol-2-amin] was tested. Which pest or weed control at 0.004 mg [2] did it give?
**A.** 100%

**Q.** What about the pest or weed control at 100 g/ha [3] of the same compound?
**A.** 100%

**Q.** What about the mortality at 100 g/ha [4] of the same compound?
**A.** 100%

**Q.** What about the pest or weed control at 5 µg/cm2 [5] of the same compound?
**A.** 80%

**Q.** And the mortality at 100 ppm [1]?
**A.** 100%

**Q.** For `C[C@H](Nc1nc2cc(Cl)c(SC3CC3)cc2o1)c1ncnn1-c1ncccn1` [Example I-072, 5-Chlor-6-(cyclopropylsulfanyl)-N-{(1S)-1-[1-(pyrimidin-2-yl)-1H-1,2,4-triazol-5-yl]ethyl}-1,3-benzoxazol-2-amin], which pest or weed control at 5 µg/cm2 [5] is on record?
**A.** 90%

**Q.** What about the mortality at 100 ppm [1] of the same compound?
**A.** 100%

**Q.** How did the pest or weed control at 0.02 mg [2] turn out when `CCSc1cc2oc(N[C@@H](C)c3ncnn3-c3ncccn3)nc2cc1Cl` [Example I-073, 5-Chor-6-(ethylsulfanoyl)-N-{(1S)-1-[1-(pyrimidin-2-yl)-1H-1,2,4-triazol-5-yl]ethyl}-1,3-benzoxazol-2-amin] was run?
**A.** 100%

**Q.** And the pest or weed control at 5 µg/cm2 [5]?
**A.** 100%

**Q.** And the mortality at 100 ppm [1]?
**A.** 90%

**Q.** For `C[C@H](Nc1nc2cc(C(C)(C)C)cc(Cl)c2o1)c1ncnn1-c1ncccn1` [Example I-075, 5-tert-Butyl-7-chlor-N-{(1S)-1-[1-(pyrimidin-2-yl)-1H-1,2,4-triazol-5-yl]ethyl}-1,3-benzoxazol-2-amin], which pest or weed control at 0.004 mg [2] is on record?
**A.** 100%

**Q.** And the pest or weed control at 0.02 mg [2]?
**A.** 100%

**Q.** And the mortality at 100 ppm [1]?
**A.** 80%

**Q.** What does the source list for `CSc1cc2oc(N[C@@H](C)c3ncnn3-c3ncccn3)nc2cc1Cl` [Example I-076, 5-Chlor-6-(methylsulfanyl)-N-{(1S)-1-[1-(pyrimidin-2-yl)-1H-1,2,4-triazol-5-yl]ethyl}-1,3-benzoxazol-2-amin]?
**A.** pest or weed control at 0.004 mg [2]: 100%; pest or weed control at 0.02 mg [2]: 100%; pest or weed control at 5 µg/cm2 [5]: 90%; mortality at 100 ppm [1]: 100%

**Q.** `C[C@H](Nc1nc2cc(OC(F)(F)F)cc(Cl)c2o1)c1ncnn1-c1ncc(Br)cn1` [Example I-078, N-{(1S)-1-[1-(5-Brompyrimidin-2-yl)-1H-1,2,4-triazol-5-yl]ethyl}-7-chlor-5-(trifluormethoxy)-1,3-benzoxazol-2-amin] was tested. Which pest or weed control at 100 g/ha [3] did it give?
**A.** 100%

**Q.** And the mortality at 100 ppm [1]?
**A.** 100%

**Q.** What does the source list for `C[C@H](Nc1nc2c(C(F)(F)F)cc(Br)cn2n1)c1ncnn1-c1ncccn1` [Example I-095, 6-bromo-N-{(1S)-1-[1-(pyrimidin-2-yl)-1H-1,2,4-triazol-5-yl]ethyl}-8-(trifluoromethyl)[1,2,4]triazolo[1,5-a]pyridin-2-amine]?
**A.** pest or weed control at 5 µg/cm2 [5]: 80%; mortality at 100 ppm [1]: 100%
